Some test systems named below: A498; HCT-116; HCT-15; HOP-62; HT-29; M14; MCF7; MDA-MB-435; NCI-H226; NCI-H23; NCI-H460; OVCAR-5; OVCAR-8; SF-295; SK-OV-3; T47D; UACC-257; UACC-62; SNB-75.
What all share (test): inhibition of tumour cell growth, NCI panel, 48 h

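A five-concentration, 48-hour dose response in 96-well plates underlies each endpoint, interpolated linearly between surrounding concentrations. Abbreviation: GI50, concentration required for 50% inhibition of growth.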 Active and inactive are the calls of the source. Cut-off read from the data, not from the text of the source: active = GI50 up to about 1.1 µM and inactive = higher.

For `N#CC(C#N)=NNc1ccc2cn[nH]c2c1`, the GI50 with A498 is > 100 µM (inactive); with HCT-116, 20.5 µM (inactive); with HCT-15, 83.2 µM; in the assay with HOP-62, > 100 µM (inactive); in the assay on HT-29 it was 91.2 µM (inactive); in the assay on M14, 35.6 µM (inactive). For the same molecule, the GI50 in the assay with MCF7 is 31.1 µM (inactive); with MDA-MB-435, 34.3 µM (inactive); in the assay on NCI-H226 it was > 100 µM (inactive); in the assay with NCI-H23, 19.1 µM (inactive); in the assay on NCI-H460, 57.3 µM (inactive); in the assay on OVCAR-5, > 100 µM (inactive). For the same molecule, the GI50 in the assay with OVCAR-8 is 51.4 µM (inactive); with SF-295 it was > 100 µM (inactive); in the assay on SK-OV-3, > 100 µM (inactive); in the assay on T47D it was 35.7 µM (inactive); with UACC-257 it was 20.4 µM (inactive); with UACC-62, > 100 µM (inactive).
For the molecule `CC1=C(SCc2ccccc2)C(=O)c2ccccc2C1=O`, the GI50 in the assay with A498 was 24 µM (inactive); in the assay on HCT-116, 4.23 µM (inactive); in the assay on HCT-15, 18.5 µM; with HOP-62, 17.3 µM (inactive); in the assay on HT-29 it was 30.3 µM (inactive); in the assay on MCF7 it was 14.2 µM (inactive). In addition, the GI50 in the assay on MDA-MB-435 was 14.6 µM (inactive); in the assay with NCI-H23, 17.9 µM (inactive); with NCI-H460, 21.8 µM (inactive); in the assay on OVCAR-5, 25.5 µM (inactive); in the assay with OVCAR-8 it was 13.4 µM (inactive); in the assay on SF-295, 18.1 µM (inactive). Also, the GI50 in the assay on SK-OV-3 is 20.2 µM (inactive); in the assay with SNB-75, 13.4 µM (inactive); in the assay with T47D it was 3.18 µM (inactive); in the assay on UACC-257, 16.1 µM (inactive); in the assay on UACC-62, 15.8 µM (inactive).
Consider `NS(=O)(=O)c1c(O)c2ccccc2oc1=O`, for which the GI50 with A498, with HCT-116, in the assay with HOP-62, in the assay on HT-29, in the assay with M14 and in the assay with MCF7 was > 100 µM (inactive) throughout. In addition, the GI50 in the assay with MDA-MB-435, with NCI-H226, in the assay on NCI-H23, in the assay with NCI-H460, in the assay on OVCAR-5 and in the assay on OVCAR-8 was > 100 µM (inactive) each time. In addition, the GI50 with SF-295, in the assay on SNB-75, in the assay with T47D, in the assay on UACC-257 and in the assay on UACC-62 was > 100 µM (inactive) each time.
Take `CC1C2(C)OC(=N)C(C#N)(C(c3ccccc3)O2)C1(C#N)C#N` (configuration not stated): the GI50 in the assay with A498 is 42.1 µM (inactive); in the assay on HCT-116, 21.2 µM (inactive); with HCT-15 it was 10.9 µM; with HT-29, 18.1 µM (inactive); with M14, 13.9 µM (inactive); with MCF7, 21.2 µM (inactive). Also, the GI50 in the assay with MDA-MB-435 is 33.3 µM (inactive); in the assay with NCI-H226 it was > 100 µM (inactive); with NCI-H23 it was 28.2 µM (inactive); in the assay on NCI-H460 it was 12.6 µM (inactive); in the assay with OVCAR-5 it was 25.5 µM (inactive); with OVCAR-8, 30.4 µM (inactive). Also, the GI50 was 86.5 µM (inactive) in the assay on SF-295; > 100 µM (inactive) in the assay with SK-OV-3; > 100 µM (inactive) in the assay on SNB-75; 20 µM (inactive) in the assay with T47D; 25.2 µM (inactive) in the assay with UACC-257; 24.4 µM (inactive) in the assay on UACC-62.
Turning to `Cn1c(=O)n2c(=O)n(C)c(=O)n2c1=O`, the GI50 is > 100 µM (inactive) in the assay with A498; 91.8 µM (inactive) in the assay on HCT-116; greater than 100 µM with HCT-15; > 100 µM (inactive) with HT-29; > 100 µM (inactive) in the assay on M14; > 100 µM (inactive) in the assay on MCF7. For the same molecule, the GI50 in the assay on MDA-MB-435, with NCI-H226, in the assay with NCI-H23, in the assay with NCI-H460, with OVCAR-5 and in the assay on OVCAR-8 was > 100 µM (inactive) in each case. The GI50 in the assay with SK-OV-3, with SNB-75, in the assay with T47D, in the assay on UACC-257 and with UACC-62 was > 100 µM (inactive) throughout.
Turning to `CC1=NN(c2nc(N)nc(/C(C#N)=C/c3ccncc3)n2)C(C)(C)C1`, the GI50 in the assay on A498 was 60.3 µM (inactive); in the assay with HCT-116, > 100 µM (inactive); in the assay with HCT-15, greater than 100 µM; with HOP-62, > 100 µM (inactive); in the assay on HT-29, > 100 µM (inactive); with M14, > 100 µM (inactive). In addition, the GI50 was 91.8 µM (inactive) with MCF7; > 100 µM (inactive) in the assay on MDA-MB-435; > 100 µM (inactive) with NCI-H226; > 100 µM (inactive) with NCI-H23; > 100 µM (inactive) with NCI-H460; > 100 µM (inactive) with OVCAR-8. Besides, the GI50 with SF-295, in the assay on SK-OV-3, with SNB-75, with T47D, in the assay on UACC-257 and in the assay on UACC-62 was > 100 µM (inactive) throughout.
Regarding `Fc1cccc(F)c1C1SCC2=Nc3ccccc3CN21` (configuration not stated), the GI50 is > 100 µM (inactive) in the assay with A498; 26.5 µM (inactive) in the assay with HCT-116; greater than 100 µM in the assay on HCT-15; 20.8 µM (inactive) in the assay on HOP-62; 91.2 µM (inactive) with M14; 35 µM (inactive) in the assay on MCF7. In addition, the GI50 in the assay on MDA-MB-435 is > 100 µM (inactive); in the assay with NCI-H23 it was 39.8 µM (inactive); in the assay on NCI-H460, 71 µM (inactive); with OVCAR-5 it was 56 µM (inactive); in the assay with SF-295 it was 38.1 µM (inactive); with SK-OV-3 it was 36.8 µM (inactive). For the same molecule, the GI50 with SNB-75 was 18.7 µM (inactive); in the assay on T47D, 49.7 µM (inactive); in the assay on UACC-257, 60.3 µM (inactive); in the assay on UACC-62, 41 µM (inactive).
With `N/C(COc1ccc(Cl)cc1)=N\NC(=O)c1ccncc1`, the GI50 is 57.9 µM (inactive) in the assay on A498; > 100 µM (inactive) in the assay with HCT-116; 55.6 µM in the assay on HCT-15; > 100 µM (inactive) with HOP-62; > 100 µM (inactive) with HT-29; > 100 µM (inactive) in the assay with M14. Moreover, the GI50 with MCF7 is > 100 µM (inactive); in the assay on MDA-MB-435, > 100 µM (inactive); in the assay with NCI-H23, > 100 µM (inactive); with NCI-H460, 63.5 µM (inactive); in the assay on OVCAR-5, > 100 µM (inactive); in the assay on OVCAR-8 it was > 100 µM (inactive). Moreover, the GI50 in the assay with SF-295 is > 100 µM (inactive); in the assay with SK-OV-3, > 100 µM (inactive); in the assay with SNB-75 it was 30.3 µM (inactive); in the assay on T47D, 62.4 µM (inactive); in the assay with UACC-257, 72.4 µM (inactive); in the assay with UACC-62, > 100 µM (inactive).
Take `COC(=O)c1ccc(OCc2ccc3nc(-c4ccccc4)c(Cl)nc3c2)cc1`: the GI50 with A498 is > 100 µM (inactive); in the assay with HCT-116, 83 µM (inactive); with HCT-15, greater than 100 µM; in the assay with HOP-62, 29.4 µM (inactive); in the assay with HT-29, > 100 µM (inactive); with M14 it was > 100 µM (inactive). For the same molecule, the GI50 is > 100 µM (inactive) in the assay with MCF7; 74.8 µM (inactive) with MDA-MB-435; 47.2 µM (inactive) in the assay with NCI-H23; > 100 µM (inactive) in the assay with NCI-H460; > 100 µM (inactive) in the assay on OVCAR-5; 48 µM (inactive) in the assay on OVCAR-8. Further, the GI50 in the assay with SF-295 is 46 µM (inactive); in the assay on SNB-75 it was 22.9 µM (inactive); in the assay with T47D it was > 100 µM (inactive); with UACC-257 it was > 100 µM (inactive); in the assay with UACC-62 it was > 100 µM (inactive).
For the molecule `CCC(=O)Nc1ccc(NC(C#N)c2cccc(Oc3ccccc3)c2)cc1` (configuration not stated), the GI50 is > 100 µM (inactive) in the assay with A498; 34.5 µM (inactive) in the assay on HCT-116; 45 µM in the assay with HCT-15; 49.7 µM (inactive) in the assay with HOP-62; 33.8 µM (inactive) in the assay with HT-29; 40.3 µM (inactive) with M14. In addition, the GI50 was 35.2 µM (inactive) in the assay with MCF7; 35.5 µM (inactive) in the assay with MDA-MB-435; 30.3 µM (inactive) in the assay with NCI-H226; 45.2 µM (inactive) in the assay with NCI-H23; > 100 µM (inactive) in the assay on OVCAR-5; 26.2 µM (inactive) with OVCAR-8. Besides, the GI50 with SF-295 is 45.7 µM (inactive); in the assay on SK-OV-3, > 100 µM (inactive); in the assay on SNB-75 it was 42 µM (inactive); in the assay with T47D, 42.3 µM (inactive); in the assay with UACC-62, 52 µM (inactive).
Turning to `NC(=O)SCC(=O)Nc1ccc2cccc3c2c1CC3`, the GI50 was 91 µM (inactive) in the assay with A498; 15.5 µM (inactive) with HCT-116; 16.6 µM in the assay with HCT-15; 52.1 µM (inactive) with HOP-62; 29.7 µM (inactive) with HT-29; 21.8 µM (inactive) in the assay on M14. The GI50 was 11 µM (inactive) in the assay on MCF7; 17.4 µM (inactive) in the assay on MDA-MB-435; 23.7 µM (inactive) in the assay with NCI-H23; 17.7 µM (inactive) in the assay on OVCAR-5; 63.4 µM (inactive) in the assay with OVCAR-8; 21.1 µM (inactive) in the assay with SF-295. Besides, the GI50 is 96.6 µM (inactive) in the assay with SNB-75, 21.9 µM (inactive) in the assay with T47D, 21.1 µM (inactive) in the assay on UACC-257 and 13.7 µM (inactive) in the assay with UACC-62.
Turning to `CCOC(=O)c1c(CN2CCCC2)n(-c2ccccc2)c2cc(Br)c(O)cc12`, the GI50 in the assay on A498 is 16.4 µM (inactive); in the assay with HCT-116 it was 16 µM (inactive); in the assay on HCT-15, 20.8 µM; in the assay on HOP-62 it was 13.3 µM (inactive); in the assay with HT-29 it was 5.86 µM (inactive); with M14, 15.5 µM (inactive). The GI50 in the assay with MCF7 was 21 µM (inactive); in the assay on MDA-MB-435, 18 µM (inactive); in the assay with NCI-H23, 19.3 µM (inactive); in the assay with NCI-H460, 17 µM (inactive); in the assay on OVCAR-5, 19.1 µM (inactive); in the assay on OVCAR-8 it was 22.9 µM (inactive). Besides, the GI50 with SF-295 was 16.6 µM (inactive); in the assay with SK-OV-3, 25.8 µM (inactive); in the assay with SNB-75 it was 15.3 µM (inactive); in the assay with T47D, 20.7 µM (inactive); in the assay on UACC-257 it was 17.5 µM (inactive); with UACC-62, 16.7 µM (inactive).
